Experimental data as given in patent publication US20230406864A1, “7-AZOLE SUBSTITUTED 2-AMINOQUINAZOLINE INHIBITORS OF HPK1” (MERCK SHARP & DOHME LLC, priority 2020, published 2023).

Each compound was assayed against T1, Human HPK1, catalytic domain (Homo sapiens, UniProt Q92918) (assay: HPK1-SLP76 TR-FRET assay). Conditions: HPK1 kinase domain 0.075 nM; full length SLP-76 10 nM; ATP 10 μM; 30 min preincubation; 60 min reaction; room temperature.
T1 construct: purchased Cama (so in the source)
T1 sequence (Q92918 1-346): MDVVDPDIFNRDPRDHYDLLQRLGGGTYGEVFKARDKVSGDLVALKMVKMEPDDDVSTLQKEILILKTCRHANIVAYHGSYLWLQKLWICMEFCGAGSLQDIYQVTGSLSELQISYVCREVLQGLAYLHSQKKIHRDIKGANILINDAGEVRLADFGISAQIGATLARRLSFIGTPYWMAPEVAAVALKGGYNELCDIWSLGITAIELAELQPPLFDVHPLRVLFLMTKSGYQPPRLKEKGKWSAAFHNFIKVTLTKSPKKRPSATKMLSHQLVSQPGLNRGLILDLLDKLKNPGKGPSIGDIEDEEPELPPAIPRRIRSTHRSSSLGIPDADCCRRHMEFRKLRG
Format: biochemical
An IC50 of 0.063 nM was found for `Cc1c(-c2cc3nc(Nc4cc5n(n4)CCN(C(C)C)C(=O)C5)ncc3c(N)c2F)cnc2c1NCCO2` [Example 2-20, 2-{[5-amino-6-fluoro-7-(8-methyl-2,3-dihydro-1H-pyrido[2,3-b][1,4]oxazin-7-yl)quinazolin-2-yl]amino}-6-(propan-2-yl)-7,8-dihydro-4H-pyrazolo[1,5-d][1,4]diazepin-5(6H)-one] in this work.
An IC50 of 0.16 nM was found for `Cc1c(-c2cc3nc(Nc4cnn(C(C)C)c4)ncc3c(N)c2F)cnc2c1NCCO2` [Example 2-14, 6-fluoro-7-(8-methyl-2,3-dihydro-1H-pyrido[2,3-b][1,4]oxazin-7-yl)-N~2~-[1-(propan-2-yl)-1H-pyrazol-4-yl]quinazoline-2,5-diamine] in this work.
An IC50 of 0.71 nM was found for `Cc1c(-c2ccc3cnc(Nc4cnn(C)c4)nc3c2)cnc2c1NCCO2` [Example 1-5, 7-(8-methyl-2,3-dihydro-1H-pyrido[2,3-b][1,4]oxazin-7-yl)-N-(1-methyl-1H-pyrazol-4-yl)quinazolin-2-amine] in this work.
An IC50 of 0.094 nM was found for `CNC(=O)C12CC(n3cc(Nc4ncc5c(N)c(F)c(-c6cnc7c(c6C)NCCO7)cc5n4)cn3)(C1)C2` [Example 2-28, 3-(4-{[5-amino-6-fluoro-7-(8-methyl-2,3-dihydro-1H-pyrido[2,3-b][1,4]oxazin-7-yl)quinazolin-2-yl]amino}-1H-pyrazol-1-yl)-N-methylbicyclo[1.1.1]pentane-1-carboxamide] in this work.
An IC50 of 0.35 nM was found for `Cc1c(-c2cc3nc(Nc4cnn(C5CCN(C)C5=O)c4)ncc3c(N)c2F)cnc2c1NCCO2` (single isomer, unassigned) [Example 2-21, (S or R)-3-(4-{[5-amino-6-fluoro-7-(8-methyl-2,3-dihydro-1H-pyrido[2,3-b][1,4]oxazin-7-yl)quinazolin-2-yl]amino}-1H-pyrazol-1-yl)-1-methylpyrrolidin-2-one] in this work.
An IC50 of 0.071 nM was found for `Cc1cnsc1Nc1ncc2c(N)c(F)c(-c3cnc4c(c3C)NCCO4)cc2n1` [Example 2-37, 6-fluoro-7-(8-methyl-2,3-dihydro-1H-pyrido[2,3-b][1,4]oxazin-7-yl)-N~2~-(4-methyl-1,2-thiazol-5-yl)quinazoline-2,5-diamine] in this work.
An IC50 of 0.675 nM was found for `Cc1c(-c2ccc3cnc(Nc4cc5n(n4)CCN(CC(C)(C)O)C(=O)C5)nc3c2)cnc2c1NCCO2` [Example 1-8, 6-(2-hydroxy-2-methylpropyl)-2-((7-(8-methyl-2,3-dihydro-1H-pyrido[2,3-b][1,4]oxazin-7-yl)quinazolin-2-yl)amino)-7,8-dihydro-4H-pyrazolo[1,5-d][1,4]diazepin-5(6H)-one] in this work.
An IC50 of 2.8 nM was found for `Cc1c(-c2cc3nc(Nc4cnn(Cc5ccccc5)c4)ncc3c(N)c2F)cnc2c1NCCO2` [Example 2-12, N~2~-(1-benzyl-1H-pyrazol-4-yl)-6-fluoro-7-(8-methyl-2,3-dihydro-1H-pyrido[2,3-b][1,4]oxazin-7-yl)quinazoline-2,5-diamine] in this work.
An IC50 of 1 nM was found for `CCn1cc(Nc2ncc3c(N)c(F)c(-c4cnc5c(c4C)NCCO5)cc3n2)c(C)n1` [Example 2-27, N~2~-(1-ethyl-3-methyl-1H-pyrazol-4-yl)-6-fluoro-7-(8-methyl-2,3-dihydro-1H-pyrido[2,3-b][1,4]oxazin-7-yl)quinazoline-2,5-diamine] in this work.
An IC50 of 0.38 nM was found for `Cc1c(-c2cc3nc(Nc4cnn(C5(C)CC5)c4Cl)ncc3c(N)c2F)cnc2c1NCCO2` [Example 2-26, N~2~-[5-chloro-1-(1-methylcyclopropyl)-1H-pyrazol-4-yl]-6-fluoro-7-(8-methyl-2,3-dihydro-1H-pyrido[2,3-b][1,4]oxazin-7-yl)quinazoline-2,5-diamine] in this work.
An IC50 of 0.49 nM was found for `Cc1c(-c2cc3nc(Nc4cnn(C5CC5)c4Cl)ncc3c(N)c2F)cnc2c1NCCO2` [Example 2-25, N~2~-(5-chloro-1-cyclopropyl-1H-pyrazol-4-yl)-6-fluoro-7-(8-methyl-2,3-dihydro-1H-pyrido[2,3-b][1,4]oxazin-7-yl)quinazoline-2,5-diamine] in this work.
An IC50 of 0.14 nM was found for `Cc1c(-c2cc3nc(Nc4cnn(C5CC6(C5)CN(C5(C)COC5)C6)c4)ncc3c(N)c2F)cnc2c1NCCO2` [Example 2-2, 6-fluoro-7-(8-methyl-2,3-dihydro-1H-pyrido[2,3-b][1,4]oxazin-7-yl)-N~2~-{1-[2-(3-methyloxetan-3-yl)-2-azaspiro[3.3]heptan-6-yl]-1H-pyrazol-4-yl}quinazoline-2,5-diamine] in this work.
An IC50 of 0.051 nM was found for `Cc1c(-c2cc3nc(Nc4cnn(C56CC(C(C)(C)O)(C5)C6)c4)ncc3c(N)c2F)cnc2c1NCCO2` [Example 2-46, 2-[3-(4-{[5-amino-6-fluoro-7-(8-methyl-2,3-dihydro-1H-pyrido[2,3-b][1,4]oxazin-7-yl)quinazolin-2-yl]amino}-1H-pyrazol-1-yl)bicyclo[1.1.1]pentan-1-yl]propan-2-ol] in this work.
An IC50 of 0.14 nM was found for `Cc1c(-c2c(F)c(N)c3cnc(Nc4cnn(C5(C)CC5)c4)nc3c2Cl)cnc2c1NCCO2` [Example 2-43, (+ and −)-8-chloro-6-fluoro-N~2~-[1-(1-methylcyclopropyl)-1H-pyrazol-4-yl]-7-(8-methyl-2,3-dihydro-1H-pyrido[2,3-b][1,4]oxazin-7-yl)quinazoline-2,5-diamine] in this work.
An IC50 of 0.051 nM was found for `Cc1c(-c2cc3nc(Nc4cnn(C5COC5)c4)ncc3c(N)c2F)cnc2c1NCCO2` [Example 2-39, 6-fluoro-7-(8-methyl-2,3-dihydro-1H-pyrido[2,3-b][1,4]oxazin-7-yl)-N~2~-[1-(oxetan-3-yl)-1H-pyrazol-4-yl]quinazoline-2,5-diamine] in this work.
An IC50 of 0.26 nM was found for `CCC(=O)N1CC(n2cc(Nc3ncc4ccc(-c5cnc6c(c5C)NCCO6)cc4n3)cn2)C1` [Example 1-3, 1-[3-(4-{[7-(8-methyl-2,3-dihydro-1H-pyrido[2,3-b][1,4]oxazin-7-yl)quinazolin-2-yl]amino}-1H-pyrazol-1-yl)azetidin-1-yl]propan-1-one] in this work.
An IC50 of 0.42 nM was found for `CCC(=O)N1CC(n2cc(Nc3ncc4c(N)c(F)c(-c5cnc6c(c5C)NCCO6)cc4n3)cn2)C1` [Example 2-1, 1-[3-(4-{[5-amino-6-fluoro-7-(8-methyl-2,3-dihydro-1H-pyrido[2,3-b][1,4]oxazin-7-yl)quinazolin-2-yl]amino}-1H-pyrazol-1-yl)azetidin-1-yl]propan-1-one] in this work.
An IC50 of 0.19 nM was found for `Cc1c(-c2cc3nc(Nc4cnn(C5CCC5)c4)ncc3c(N)c2F)cnc2c1NCCO2` [Example 2-23, N~2~-(1-cyclobutyl-1H-pyrazol-4-yl)-6-fluoro-7-(8-methyl-2,3-dihydro-1H-pyrido[2,3-b][1,4]oxazin-7-yl)quinazoline-2,5-diamine] in this work.
An IC50 of 0.22 nM was found for `Cc1c(-c2ccc3cnc(Nc4cnn(C5CC6(C5)CN(C5(C)COC5)C6)c4)nc3c2)cnc2c1NCCO2` [Example 1-2, 7-(8-methyl-2,3-dihydro-1H-pyrido[2,3-b][1,4]oxazin-7-yl)-N-{1-[2-(3-methyloxetan-3-yl)-2-azaspiro[3.3]heptan-6-yl]-1H-pyrazol-4-yl}quinazolin-2-amine] in this work.
An IC50 of 0.1 nM was found for `Cc1c(-c2cc3nc(Nc4cnn(C(F)F)c4C)ncc3c(N)c2F)cnc2c1NCCO2` [Example 2-29, N~2~-[1-(difluoromethyl)-5-methyl-1H-pyrazol-4-yl]-6-fluoro-7-(8-methyl-2,3-dihydro-1H-pyrido[2,3-b][1,4]oxazin-7-yl)quinazoline-2,5-diamine] in this work.
An IC50 of 0.18 nM was found for `Cc1c(-c2cc3nc(Nc4cnn(C5CC5)c4C)ncc3c(N)c2F)cnc2c1NCCO2` [Example 2-45, N~2~-(1-cyclopropyl-5-methyl-1H-pyrazol-4-yl)-6-fluoro-7-(8-methyl-2,3-dihydro-1H-pyrido[2,3-b][1,4]oxazin-7-yl)quinazoline-2,5-diamine] in this work.
